{
  "source": "patent US6784283B2",
  "about": "“Peptide antibiotics” (The University of British Columbia, priority 2000, dated 2004)",
  "key": {"[1]": {"system": "methicillin-resistant Staphylococcus aureus", "assay": "agar dilution antimicrobial assay (MIC)", "type": "cell-based", "procedure": "(§1) A solution of Bogorol A was prepared by dissolving 3 mg of e compound in 300 μL of dimethylsulfoxide (DMSO). Serial two-fold dilutions were prepared in DMSO, and 50 μL of each dilution was mixed with 5 mL of melted Mueller-Hinton agar to achieve a final Bogorol A concentration range of 200 to 0.48 μg/ml. After the agar solidified, standardized suspensions of the target organisms were inoculated onto the surface of the agar using a multipoint inoculator. The standardized suspensions were prepared in tryptic soy broth adjusted to a 1.0 McFarland turbidity standard. The plates were incubated over night at 37° C. Activity of Bogorol A was indicated by a lack of growth of any target organism at its point of inoculation."}, "Berkholderia cepacia": {"system": "Berkholderia cepacia", "settings": "other target organisms tested (Berkholderia cepacia); agar dilution", "procedure": "as §1"}, "Candida aibicans": {"system": "Candida aibicans", "settings": "other target organisms tested (Candida aibicans); agar dilution", "procedure": "as §1"}, "[2]": {"system": "Drug Resistant Pseudomonas aeruginosa", "settings": "other target organisms tested (Drug Resistant Pseudomonas aeruginosa); agar dilution", "procedure": "as §1"}, "Escherichia coli": {"system": "Escherichia coli", "settings": "agar dilution", "procedure": "as §1"}, "[3]": {"system": "Stenotrophomonas maltophilia", "settings": "agar dilution", "procedure": "as §1"}, "[4]": {"system": "vancomycin-resistant Enterococcus faecalis", "settings": "agar dilution", "procedure": "as §1"}},
  "note": "Starred links: 1 amine or outer side, 2 acyl side, 3 side chain; linkers in the order of their positions; H or OH if unused. Non-standard residues stand in square brackets, D forms with d. Residues, ends and D or L forms follow the SMILES beside them. *: point of attachment. Pentanoyl(2S-OH,3S-Me) = CC[C@H](C)[C@H](O)C(=O)*; X1 = C/C=C(/N[*:1])C(=O)[*:2]; dOrn = NCCC[C@@H](N)C(=O)O; Valol = CC(C)[C@@H](CO)N*",
  "data": [
    {"smiles": "C/C=C(/NC(=O)[C@@H](O)[C@@H](C)CC)C(=O)N[C@@H](CC(C)C)C(=O)N[C@H](CCCN)C(=O)N[C@H](C(=O)N[C@H](C(=O)N[C@H](C(=O)N[C@H](CCCCN)C(=O)N[C@H](C(=O)N[C@@H](CC(C)C)C(=O)N[C@@H](CCCCN)C(=O)N[C@H](Cc1ccc(O)cc1)C(=O)N[C@H](CC(C)C)C(=O)N[C@H](CO)C(C)C)C(C)C)C(C)C)C(C)C)[C@@H](C)CC", "note": "[Bogorol A] ({Pentanoyl(2S-OH,3S-Me)}-[X1]L[dOrn]IVV[dK]VLK[dY][dL]-Valol)", "values": [
      {"measurement": "antimicrobial activity (in words)", "setting": "[1]", "result": "active"},
      {"measurement": "antimicrobial activity (in words)", "setting": "Berkholderia cepacia", "result": "essentially inactive"},
      {"measurement": "antimicrobial activity (in words)", "setting": "Candida aibicans", "result": "essentially inactive"},
      {"measurement": "antimicrobial activity (in words)", "setting": "[2]", "result": "essentially inactive"},
      {"measurement": "antimicrobial activity (in words)", "setting": "Escherichia coli", "result": "moderately active"},
      {"measurement": "antimicrobial activity (in words)", "setting": "[3]", "result": "moderately active"},
      {"measurement": "antimicrobial activity (in words)", "setting": "[4]", "result": "active"}
    ]}
  ]
}
